Reference: patent publication US6271238A, “Acetamide derivatives and protease inhibitors” (Nippon Kayaku Kabushiki Kaisha, priority 1996, dated 2001)

Legend:
Type in all cases: biochemical
human chymase = biological target: T1, human chymase (Homo sapiens, UniProt P23946); test: Inhibitory activity on human chymase (angiotensin I as substrate); details: for IC50: substrate angiotensin I, pH 8.0, 37° C., 60 min, read-out: Human Chymase (IC50: nM), 50% inhibitory concentration
T1 construct: 60 g human tonsils were finely divided by scissors and a scalpel; from tissue; host or cells: human tonsils
T1 sequence (P23946 22-247): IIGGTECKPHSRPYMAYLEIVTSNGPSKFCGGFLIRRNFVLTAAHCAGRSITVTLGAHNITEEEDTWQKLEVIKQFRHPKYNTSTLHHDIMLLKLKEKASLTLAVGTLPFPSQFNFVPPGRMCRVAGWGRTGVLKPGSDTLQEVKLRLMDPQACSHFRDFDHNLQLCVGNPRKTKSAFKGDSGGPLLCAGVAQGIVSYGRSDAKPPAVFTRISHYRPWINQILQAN
Excerpt: It is known that chymase is present in tissues of various animals, and its isolation and purification methods are described in Anal. Biochem., 137, 449 (1984) and FEBS Letters, 323, 119 (1993). In the present invention, chymase was purified by the methods described in these literatures, and the present compounds were examined for inhibitory activity on chymase, inhibitory action on activation of mast cells and eosinophils, and pharmacological action in animals. Hereinafter, specific methods are described. 50 g rat tongue was finely divided by scissors and a scalpel, suspended in 0.1 M phosphate buffer (pH 8.0), and disrupted by a Polytron homogenizer for 5 minutes to prepare a crude chymase enzyme solution. […] The supernatant was applied to an octyl Sepharose 4B column (40×100 mm) previously equilibrated with 0.1 M phosphate buffer (pH 8.0) containing 2 M sodium chloride and 5% ammonium sulfate, and the protein was eluted with a linear concentration gradient of from 2 M to 0 M sodium chloride. An active fraction decomposing succinyl leucyl leucyl valyl tyrosyl methylcumarylamide (hereinafter referred to as the synthetic chymase substrate, a product of Peptide Kenkyusho) was recovered and concentrated and this product was used as a purified rat chymase in the following activity measurement. (B) Preparation of human chymase 60 g human tonsils were finely divided by scissors and a scalpel, suspended in 0.1 M phosphate buffer (pH 8.0), and A-disrupted by a Polytron homogenizer for 5 minutes to prepare a crude chymase enzyme solution. It was centrifuged at 22000×g for 30 minutes, and the precipitates were used as a chymase enzyme fraction. […] The supernatant was concentrated by an ultrafiltration membrane, then applied to […] column (6.0×300 mm), and eluted with 0.1 M phosphate buffer (pH 8.0). An active fraction decomposing the synthetic chymase substrate was recovered and concentrated and this product was used as a purified human chymase in the following activity measurement. (D) Measurement of inhibitory activity on chymase (b) Measurement using angiotensin I as substrate The inhibitory activity on the human chymase and dog chymase was measured using angiotensin I (Peptide Kenkyusho) as substrate besides the above synthetic substrate. […] After the end of the reaction, produced angiotensin II was immediately measured by high performance liquid chromatography to determine the activity of the chymase to calculate 50% inhibitory concentration (IC50: nM). The test was conducted several times. Chymase was prepared for each test in the manner described above. The compounds examined were compounds prepared in the above-described examples. […] 50% Inhibitory concentration (IC50: nM) of each compound toward rat chymase, dog […] human […] Substrate: Succinyl leucyl leucyl valyl tyrosyl methylcoumarylamide (for rat […] angiotensin I (for human and dog chymase)

dog chymase = biological target: T2, dog chymase (Canis lupus familiaris, UniProt P21842); test: Inhibitory activity on dog chymase (angiotensin I as substrate); details: pH 8.0, 37° C., 60 min, read-out: Dog Chymase (IC50: nM), 50% inhibitory concentration
T2 construct: 60 g dog heart was finely divided by scissors and a scalpel; from tissue; host or cells: dog heart
T2 sequence (P21842 22-249): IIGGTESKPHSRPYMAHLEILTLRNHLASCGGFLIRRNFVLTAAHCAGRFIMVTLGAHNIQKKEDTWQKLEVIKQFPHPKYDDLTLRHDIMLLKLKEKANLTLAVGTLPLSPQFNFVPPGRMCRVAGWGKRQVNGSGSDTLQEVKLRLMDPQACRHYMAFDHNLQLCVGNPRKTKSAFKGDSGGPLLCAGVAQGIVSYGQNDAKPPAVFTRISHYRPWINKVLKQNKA
Excerpt: It is known that chymase is present in tissues of various animals, and its isolation and purification methods are described in Anal. Biochem., 137, 449 (1984) and FEBS Letters, 323, 119 (1993). In the present invention, chymase was purified by the methods described in these literatures, and the present compounds were examined for inhibitory activity on chymase, inhibitory action on activation of mast cells and eosinophils, and pharmacological action in animals. Hereinafter, specific methods are described. (c) Preparation of dog chymase 60 g dog heart was finely divided by scissors and a scalpel, suspended in 0.1 M phosphate buffer (pH 8.0), and disrupted by a Polytron homogenizer for 5 minutes to prepare a crude chymase enzyme solution. It was centrifuged at 22000×g for 15 minutes, and the precipitates were used as a chymase enzyme fraction. […] An active fraction decomposing the synthetic chymase substrate was recovered and concentrated and this product was used as a purified dog chymase in the following activity measurement. (D) Measurement of inhibitory activity on chymase (b) Measurement using angiotensin I as substrate The inhibitory activity on the human chymase and dog chymase was measured using angiotensin I (Peptide Kenkyusho) as substrate besides the above synthetic substrate. […] After the end of the reaction, produced angiotensin II was immediately measured by high performance liquid chromatography to determine the activity of the chymase to calculate 50% inhibitory concentration (IC50: nM). The test was conducted several times. Chymase was prepared for each test in the manner described above. The compounds examined were compounds prepared in the above-described examples. […] 50% Inhibitory concentration (IC50: nM) of each compound toward rat chymase, dog […] human […] Substrate: Succinyl leucyl leucyl valyl tyrosyl methylcoumarylamide (for rat […] angiotensin I (for human and dog chymase)

rat chymase = biological target: T3, rat chymase (Rattus norvegicus, UniProt P09650); test: Inhibitory activity on rat chymase (synthetic substrate); details: substrate succinyl leucyl leucyl valyl tyrosyl methylcoumarylamide; pH 8.0, 37° C., 15 min; read-out: Rat Chymase (IC50: nM), 50% inhibitory concentration
T3 construct: 50 g rat tongue was finely divided by scissors and a scalpel; from tissue; host or cells: rat tongue
T3 sequence (P09650 21-260): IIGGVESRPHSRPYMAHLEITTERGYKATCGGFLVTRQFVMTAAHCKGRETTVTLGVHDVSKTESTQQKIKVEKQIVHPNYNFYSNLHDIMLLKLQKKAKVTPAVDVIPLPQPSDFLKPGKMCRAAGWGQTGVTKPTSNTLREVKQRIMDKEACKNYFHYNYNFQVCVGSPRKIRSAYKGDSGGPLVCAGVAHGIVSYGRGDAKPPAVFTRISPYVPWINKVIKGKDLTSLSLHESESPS
Description: In the present invention, chymase was purified by the methods described in these literatures, and the present compounds were examined for inhibitory activity on chymase, inhibitory action on activation of mast cells and eosinophils, and pharmacological action in animals. Hereinafter, specific methods are described. […] 50 g rat tongue was finely divided by scissors and a scalpel, suspended in 0.1 M phosphate buffer (pH 8.0), and disrupted by a Polytron homogenizer for 5 minutes to prepare a crude chymase enzyme solution. […] The supernatant was applied to an octyl Sepharose 4B column (40×100 mm) previously equilibrated with 0.1 M phosphate buffer (pH 8.0) containing 2 M sodium chloride and 5% ammonium sulfate, and the protein was eluted with a linear concentration gradient of from 2 M to 0 M sodium chloride. […] (D) Measurement of inhibitory activity on chymase (a) Measurement using the synthetic substrate The synthetic chymase substrate was used for measurement of the inhibitory activity on the rat chymase as a subtrate, and the fluorescence of formed aminomethylcoumarin after reaction was measured by a spectrophotometer. […] The test was conducted several times. Chymase was prepared for each test in the manner described above. The compounds examined were compounds prepared in the above-described examples. […] Succinyl leucyl leucyl valyl tyrosyl methylcoumarylamide (for rat […] angiotensin I (for human and dog chymase)

other human proteases = test: Inhibitory activity on other human proteases (summary)
Description: (E) Measurement of inhibitory activity on proteases other than chymase
The inhibitory activity of the present compounds on human elastase, human cathepsin G, human urokinase, human thrombin, human plasmin, and human factor Xa was determined using their corresponding synthetic substrates in the same manner as for chymase. All the above proteases were those commercially available from Boehringer Mannheim or purified by a combination of known methods. The synthetic substrates were those produced by Peptide Renkyusho. The synthetic substrates for the respective proteases are as follows.
The test was conducted several times. Chymase was prepared for each test in the manner described above. The compounds examined were compounds prepared in the above-described examples.

Compound	IC50 (human chymase) [nM]	IC50 (dog chymase) [nM]	IC50 (rat chymase) [nM]	inhibitory activity on human chymase, in words (human chymase)	inhibitory activity on other human proteases, in words (other human proteases)
CC(=O)C(=O)C(Cc1ccccc1)NC(=O)Cn1c(-c2ccccc2)ncc(NC(=O)OC(C)(C)C)c1=O (centres unmarked) [Compound 37, 2-(5-t-Butyloxycarbonylamino-6-oxo-1,6-dihydro-2-phenyl-1-pyrimidinyl)-N-(2,3-dioxo-1-phenylmethyl) butylacetamide]	673	22	2900	–	–
CC(C)(C)OC(=O)Nc1cnc(-c2ccccc2)n(CC(=O)NC(Cc2ccccc2)C(=O)C(=O)CCc2ccccc2)c1=O (centres unmarked) [Compound 41]	148	13	740	–	–
Nc1cnc(-c2ccccc2)n(CC(=O)NC(Cc2ccccc2)C(=O)C(=O)c2ccccc2)c1=O (centres unmarked) [Compound 46]	1590	494	2800	–	–
Nc1cnc(-c2ccccc2)n(CC(=O)NC(Cc2ccccc2)C(=O)C(=O)CCCC(=O)O)c1=O (centres unmarked) [Compound 48]	314	33	> 10000	–	–
CC(=O)C(=O)C(Cc1ccc(O)c(F)c1)NC(=O)Cn1c(-c2ccccc2)ncc(N)c1=O (centres unmarked) [Compound 50]	73	19	690	strong inhibitory activity on human chymase	no inhibitory activity on other human proteases
CC(=O)C(=O)C(Cc1ccc(F)cc1)NC(=O)Cn1c(-c2ccccc2)ncc(NC(=O)OC(C)(C)C)c1=O (centres unmarked) [Compound 55]	> 10000	98	920	–	–
CC(=O)C(=O)C(Cc1ccc(Cl)cc1)NC(=O)Cn1c(-c2ccccc2)ncc(N)c1=O (centres unmarked) [Compound 58]	2850	71	340	–	–
CC(=O)C(=O)C(Cc1cccc(C)c1)NC(=O)Cn1c(-c2ccccc2)ncc(N)c1=O (centres unmarked) [Compound 60]	101	9.1	450	–	–
CC(=O)C(=O)C(Cc1cccc(Cl)c1)NC(=O)Cn1c(-c2ccccc2)ncc(N)c1=O (centres unmarked) [Compound 62]	131	5	200	–	–

Continued, in another order:

IC50 (human chymase) [nM]	IC50 (dog chymase) [nM]	IC50 (rat chymase) [nM]	Compound	inhibitory activity on human chymase, in words (human chymase)	inhibitory activity on other human proteases, in words (other human proteases)
2.6	1	220	Nc1cnc(-c2ccccc2)n(CC(=O)NC(Cc2ccccc2)C(=O)C(=O)CCCOc2ccccn2)c1=O (centres unmarked) [Compound 75]	strong inhibitory activity on human chymase	no inhibitory activity on other human proteases
122	0.19	190	CC(=O)Nc1cnc(-c2ccccc2)n(CC(=O)NC(Cc2ccccc2)C(=O)C(=O)CCCn2ccccc2=O)c1=O (centres unmarked) [Compound 76]	–	–
7	1.4	48	O=C(Cn1c(-c2ccccc2)ncc(NS(=O)(=O)Cc2ccccc2)c1=O)NC(Cc1ccccc1)C(=O)C(=O)CCCOc1ccccn1 (centres unmarked) [Compound 77, 2-(5-Benzylsulfonylamino-6-oxo-2-phenyl-1,6-dihydropyrimidine-1-yl)-N-{2,3-dioxo-1-phenylmethyl-6-(2-pyridyloxy)}hexylacetamide]	strong inhibitory activity on human chymase	no inhibitory activity on other human proteases
1.6	0.32	42	O=C(Cn1c(-c2ccccc2)ncc(NC(=O)OCc2ccncc2)c1=O)NC(Cc1ccccc1)C(=O)C(=O)CCCOc1ccccn1 (centres unmarked) [Compound 78, 2-{6-oxo-2-phenyl-5-(4-pyridylmethyloxycarbonylamino)-1,6-dihydropyrimidine-1-yl}-N-{2,3-dioxo-1-phenylmethyl-6-(2-pyridyloxy)}hexylacetamide]	strong inhibitory activity on human chymase	no inhibitory activity on other human proteases
114	0.29	150	O=C(Cn1c(-c2ccccc2)ncc(NC(=O)C2CCOC2)c1=O)NC(Cc1ccccc1)C(=O)C(=O)CCCc1ccccc1 (centres unmarked) [Compound 81]	–	–
